Source: patent US10668043B2, “Potentiated antimicrobial agents” (priority 2014, dated 2020)
In brackets after ≈: the same amount, converted by molar mass. Read-outs that look alike come from different tables or passages of the source. Blank lines part the entries; values can stand above or below the compound they belong to.

How the values were obtained:
E. coli = test: etest on agar containing the booster; assay type: cell-based; details: Escherichia coli, Coli 8150, read-out: MIC
Text: (§1) The corresponding tests are made based on the usual MIC test: the etest® (Biomerieux) strip is deposited onto the surface of a seeded agar medium in which the booster has been incorporated. This test enables solvent effect risks, that is a possible interaction with the solvent used in vitro, to be minimised.
(§2) The control corresponds to the test made without cineol. A control is made in each solvent tested: distilled water, Tween/water and DMSO. • ED control=antibiotic alone in distilled water • DMSO control=antibiotic alone in DMSO • TE control=antibiotic alone in Tween® 80

Pasteurella = test: etest on agar containing the booster; assay type: cell-based
Text: The corresponding tests are made based on the usual MIC test: the etest® (Biomerieux) strip is deposited onto the surface of a seeded agar medium in which the booster has been incorporated.
as §2
Other e-tests are also made on Pasteurella.

Staphylococcus = test: etest on agar containing the booster; assay type: cell-based; details: MRSA 10178
Text: as §1, §2

[1] = mouse, intravenous; cited from earlier work
[2] = orally; two mammal species (cats and rats); cited from earlier work
[3] = DMSO control (antibiotic alone)
[4] = ED control (antibiotic alone in distilled water)
[5] = Tween water control (antibiotic alone)

MIC (E. coli; Cineol 1 mg DMSO): 0.064 µg/mL (≈ 0.167 µM)
MIC (E. coli; Cineol 1 mg Tween/water): 0.064 µg/mL (≈ 0.167 µM)
MIC (E. coli; Cineol 4 mg DMSO): 0.064 µg/mL (≈ 0.167 µM)
MIC (E. coli; Cineol 4 mg Tween/water): 0.047 µg/mL (≈ 0.123 µM)
MIC (E. coli; Cineol 16 mg DMSO): 0.064 µg/mL (≈ 0.167 µM)
MIC (E. coli; Cineol 16 mg Tween/water): 0.1 µg/mL (≈ 0.261 µM)
MIC (E. coli; [3]): 0.094 µg/mL (≈ 0.245 µM)
MIC (E. coli; [4]): 0.047 µg/mL (≈ 0.123 µM)
MIC (E. coli; [5]): 0.094 µg/mL (≈ 0.245 µM)
MIC (e-test) (Pasteurella; strain 14012, 5 mg cineol DMSO): 0.006 µg/mL (≈ 0.0156 µM)
MIC (e-test) (Pasteurella; strain 14012, 5 mg cineol TE): 0.008 µg/mL (≈ 0.0209 µM)
MIC (e-test) (Pasteurella; strain 14012, 5 mg cineol water): 0.006 µg/mL (≈ 0.0156 µM)
MIC (e-test) (Pasteurella; strain 14012, 10 mg cineol DMSO): 0.006 µg/mL (≈ 0.0156 µM)
MIC (e-test) (Pasteurella; strain 14012, 10 mg cineol TE): 0.008 µg/mL (≈ 0.0209 µM)
MIC (e-test) (Pasteurella; strain 14012, 10 mg cineol water): 0.008 µg/mL (≈ 0.0209 µM)
MIC (e-test) (Pasteurella; strain 14012, DMSO control): 0.008 µg/mL (≈ 0.0209 µM)
MIC (e-test) (Pasteurella; strain 14012, ED control): 0.008 µg/mL (≈ 0.0209 µM)
MIC (e-test) (Pasteurella; strain 14012, TE control): 0.023 µg/mL (≈ 0.06 µM)
MIC (e-test) (Pasteurella; strain 14014, 5 mg cineol DMSO): 0.012 µg/mL (≈ 0.0313 µM)
MIC (e-test) (Pasteurella; strain 14014, 5 mg cineol TE): 0.016 µg/mL (≈ 0.0417 µM)
MIC (e-test) (Pasteurella; strain 14014, 5 mg cineol water): 0.016 µg/mL (≈ 0.0417 µM)
MIC (e-test) (Pasteurella; strain 14014, 10 mg cineol DMSO): 0.016 µg/mL (≈ 0.0417 µM)
MIC (e-test) (Pasteurella; strain 14014, 10 mg cineol TE): 0.012 µg/mL (≈ 0.0313 µM)
MIC (e-test) (Pasteurella; strain 14014, 10 mg cineol water): 0.016 µg/mL (≈ 0.0417 µM)
MIC (e-test) (Pasteurella; strain 14014, DMSO control): 0.016 µg/mL (≈ 0.0417 µM)
MIC (e-test) (Pasteurella; strain 14014, ED Control): 0.012 µg/mL (≈ 0.0313 µM)
MIC (e-test) (Pasteurella; strain 14014, TE control): 0.012 µg/mL (≈ 0.0313 µM)
SMILES: C[C@@H](O)[C@H]1C(=O)N2C(C(=O)O)=C(S[C@@H]3CN[C@H](C(=O)N(C)C)C3)[C@H](C)[C@H]12 [Meropenem]

MIC (Staphylococcus; Cineol 1 mg DMSO, read-out: MIC): 0.094 µg/mL (≈ 0.221 µM)
MIC (Staphylococcus; Cineol 1 mg Tween/water, read-out: MIC): 0.064 µg/mL (≈ 0.151 µM)
MIC (Staphylococcus; Cineol 4 mg DMSO, read-out: MIC): 0.064 µg/mL (≈ 0.151 µM)
MIC (Staphylococcus; Cineol 4 mg Tween/water, read-out: MIC): 0.064 µg/mL (≈ 0.151 µM)
MIC (Staphylococcus; Cineol 16 mg DMSO, read-out: MIC): 0.047 µg/mL (≈ 0.111 µM)
MIC (Staphylococcus; Cineol 16 mg Tween/water, read-out: MIC): 0.047 µg/mL (≈ 0.111 µM)
MIC (Staphylococcus; DMSO control (antibiotic alone), read-out: MIC): 0.064 µg/mL (≈ 0.151 µM)
MIC (Staphylococcus; ED control (antibiotic alone in distilled water), read-out: MIC): 0.094 µg/mL (≈ 0.221 µM)
MIC (Staphylococcus; Tween water control (antibiotic alone), read-out: MIC): 0.19 µg/mL (≈ 0.447 µM)
SMILES: CCC[C@@H]1C[C@@H](C(=O)N[C@@H]([C@H]2O[C@H](SC)[C@H](O)[C@@H](O)[C@H]2O)[C@H](C)Cl)N(C)C1 [Clindamycin]

SMILES: Cc1ccc(C(C)C)cc1O [carvacrol]
LD 50 [1]: 80 mg/kg
lowest letal dose [2]: 100 mg/kg

MIC (Staphylococcus; Cineol 1 mg DMSO): 0.75^+ mg/L
MIC (Staphylococcus; Cineol 1 mg Tween/water): 0.5 µg/mL (≈ 1.5 µM)
MIC (Staphylococcus; Cineol 4 mg DMSO): 0.5^+ mg/L
MIC (Staphylococcus; Cineol 4 mg Tween/water): 0.38^+ mg/L
MIC (Staphylococcus; Cineol 16 mg DMSO): 0.19^+ mg/L
MIC (Staphylococcus; Cineol 16 mg Tween/water): 0.125^+ mg/L
MIC (Staphylococcus; [3]): 1.5 µg/mL (≈ 4.49 µM)
MIC (Staphylococcus; [4]): 1 µg/mL (≈ 2.99 µM)
MIC (Staphylococcus; [5]): 0.5 µg/mL (≈ 1.5 µM)
SMILES: CC1(C)S[C@@H]2[C@H](NC(=O)Cc3ccccc3)C(=O)N2[C@H]1C(=O)O [Penicillin G]
